Experiments:
[1] = molecular target: PTK2 (FAK) (Homo sapiens (Human), UniProt Q05397); assay: Z′-LYTE kinase assay (SelectScreen Biochemical Kinase Profiling), enzymatic IC50; details: enzymatic, Z′-LYTE; read-out: FAK IC50
Description: Enzymatic IC50 data was obtained through ThermoFisher Scientific SelectScreen™ Biochemical Kinase Profiling Service, using a Z′-LYTE™ kinase-specific assay, as described below.
The test compounds were screened in 1% dimethyl sulfoxide (DMSO) (final) in the well. For 10 point titrations, 3-fold serial dilutions were conducted from the starting concentration.
All peptide/kinase mixtures were diluted to a 2× working concentration in the appropriate kinase buffer (see section kinase specific assay conditions for a complete description).
All ATP solutions were diluted to a 4× working concentration in kinase buffer (50 mM 4-(2-hydroxyethyl)-1-piperazineethanesulfonic acid (HEPES) pH 7.5, 0.01% BRIJ-35, 10 mM MgCl2, 1 mM ethylene glycol-bis(β-aminoethyl ether)-N,N,N′,N′-tetraacetic acid (EGTA)). ATP Km apparent was previously determined using a Z′-LYTE assay.
The development reagent was diluted in development buffer (see section kinase-specific assay conditions—direct and cascade for a complete description).
Using a bar-coded Corning, low volume NBS, black 384-well plate (Corning Cat. #4514), 100 nL of 100× test compound in 100% DMSO was added. […] The plate was then shaken for 30 seconds and held at room temperature for a 60 minute kinase reaction incubation period. At which point 5 μL of development reagent solution was added and the plate was shaken for 30 seconds. The plate was held again at room temperature for a 60 minute development reaction incubation period and then read on a fluorescence plate reader and analyzed.
The 2×PTK2 (FAK)/Tyr 07 mixture was prepared in 50 mM HEPES pH 7.5, 0.01% BRIJ-35, 10 mM MgCl2, 1 mM EGTA. […] After the 1 hour kinase reaction incubation period, 5 μL of a 1:16 dilution of development reagent B was added.
SelectScreen Kinase Profiling Service uses XLfit from ID Business Solutions (IDBS). The dose response curve was curve fit to model number 205 (sigmoidal dose-response model).

[2] = test system: MDA-MB-231 cells; assay: 2D-adherent monolayer cell viability (Cell Titer-Glo), 120 hrs; format: cell-based; details: Homo sapiens
Description: (§1) For 2D-adherent monolayer experiments, MDA-MB-231 cells were plated in 384-well format and allowed to adhere overnight. Cells were treated with indicated molecules from compound stock plates using a JANUS® Workstation pin tool for 120 hrs. To measure cell viability, Cell Titer-Glo® was added to wells for 15 minutes at room temperature and luminescence was measured on an EnVision™ 2104 Multilabel Plate Reader.
Inventive compound treatment (0.00063-20 μM) led to antiproliferative effects in MDA-MB-231 cells cultured as 2D-adherent monolayers or as ultra-low adherent 3D-spheroid suspensions (Table 5).

[3] = test system: MDA-MB-231 cells; assay: ultra-low adherent 3D-spheroid suspension cell viability (3D Cell Titer-Glo), 120 hours; format: cell-based; details: Homo sapiens
Description: as §1, with “ultra-low adherent 3D-spheroid suspensions,” for “2D-adherent monolayer experiments,”, “format in media containing 10% Matrigel®” for “format”, “form spheroids” for “adhere”, “hours.” for “hrs.”, “viability, 3D” for “viability,”

PTK2 (FAK), sequence (Q05397 whole entry): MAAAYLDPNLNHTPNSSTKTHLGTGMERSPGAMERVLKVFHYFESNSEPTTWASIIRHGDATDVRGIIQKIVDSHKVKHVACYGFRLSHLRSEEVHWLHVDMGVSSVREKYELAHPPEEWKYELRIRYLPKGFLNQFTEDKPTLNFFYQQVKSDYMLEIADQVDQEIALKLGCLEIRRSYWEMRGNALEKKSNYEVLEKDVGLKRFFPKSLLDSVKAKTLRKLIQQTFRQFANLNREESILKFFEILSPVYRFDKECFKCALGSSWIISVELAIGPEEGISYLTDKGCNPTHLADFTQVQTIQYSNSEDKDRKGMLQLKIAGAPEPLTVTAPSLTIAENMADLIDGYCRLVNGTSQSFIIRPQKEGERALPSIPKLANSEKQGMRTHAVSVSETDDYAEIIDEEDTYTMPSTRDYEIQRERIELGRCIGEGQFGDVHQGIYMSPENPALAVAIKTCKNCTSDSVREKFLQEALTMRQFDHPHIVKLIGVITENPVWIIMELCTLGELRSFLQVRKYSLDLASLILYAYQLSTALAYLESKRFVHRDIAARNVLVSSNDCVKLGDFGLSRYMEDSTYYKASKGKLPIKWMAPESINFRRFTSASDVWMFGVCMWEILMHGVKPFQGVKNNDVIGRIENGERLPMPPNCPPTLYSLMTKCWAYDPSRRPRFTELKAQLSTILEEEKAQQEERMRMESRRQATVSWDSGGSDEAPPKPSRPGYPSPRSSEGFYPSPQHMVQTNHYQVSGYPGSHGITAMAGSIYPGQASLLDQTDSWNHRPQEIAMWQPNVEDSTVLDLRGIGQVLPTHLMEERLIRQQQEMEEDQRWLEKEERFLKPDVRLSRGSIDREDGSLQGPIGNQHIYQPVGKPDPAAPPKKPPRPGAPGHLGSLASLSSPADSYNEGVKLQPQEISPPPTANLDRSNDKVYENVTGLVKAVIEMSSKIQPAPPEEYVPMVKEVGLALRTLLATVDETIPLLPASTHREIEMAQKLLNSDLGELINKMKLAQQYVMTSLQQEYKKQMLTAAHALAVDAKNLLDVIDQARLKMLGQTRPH

SMILES | IC50 [1] | IC50 [2] | IC50 [3]
COc1cc(N2CCNCC2)ccc1Nc1ncc2c(n1)N(C)c1sc(C)nc1C(=O)N2C [Compound 12, 6-((2-methoxy-4-(piperazin-1-yl)phenyl)amino)-2,4,9-trimethyl-4,9-dihydro-10H-pyrimido[5,4-b]thiazolo[5,4-e][1,4]diazepin-10-one] | 43.5 nM | > 10000 nM | 2500 nM
COc1cc(N2CCN(C)CC2)ccc1Nc1ncc2c(n1)N(C)c1sc(C)nc1C(=O)N2C [Compound 14, 6-((2-methoxy-4-(4-methylpiperazin-1-yl)phenyl)amino)-2,4,9-trimethyl-4,9-dihydro-10H-pyrimido[5,4-b]thiazolo[5,4-e][1,4]diazepin-10-one] | 30.3 nM | > 10000 nM | 2300 nM
CCOc1cc(N2CCN(C)CC2)ccc1Nc1ncc2c(n1)N(C)c1sc(C)nc1C(=O)N2C [Compound 16, 6-((2-ethoxy-4-(4-methylpiperazin-1-yl)phenyl)amino)-2,4,9-trimethyl-4,9-dihydro-10H-pyrimido[5,4-b]thiazolo[5,4-e][1,4]diazepin-10-one] | 54.5 nM | > 10000 nM | 6100 nM
COc1cc(N2CCN(C)CC2)c(C)cc1Nc1ncc2c(n1)N(C)c1sc(C)nc1C(=O)N2C [Compound 18, 6-((2-methoxy-5-methyl-4-(4-methylpiperazin-1-yl)phenyl)amino)-2,4,9-trimethyl-4,9-dihydro-10H-pyrimido[5,4-b]thiazolo[5,4-e][1,4]diazepin-10-one] | 31.5 nM | > 10000 nM | 7700 nM
COc1cc(C2CCN(C)CC2)ccc1Nc1ncc2c(n1)N(C)c1sc(C)nc1C(=O)N2C [Compound 19, 6-((2-methoxy-4-(1-methylpiperidin-4-yl)phenyl)amino)-2,4,9-trimethyl-4,9-dihydro-10H-pyrimido[5,4-b]thiazolo[5,4-e][1,4]diazepin-10-one] | 51.9 nM | 8900 nM | 3700 nM
COc1cc(N2CCN(CCO)CC2)ccc1Nc1ncc2c(n1)N(C)c1sc(C)nc1C(=O)N2C [Compound 20, 6-((4-(4-(2-hydroxyethyl)piperazin-1-yl)-2-methoxyphenyl)amino)-2,4,9-trimethyl-4,9-dihydro-10H-pyrimido[5,4-b]thiazolo[5,4-e][1,4]diazepin-10-one] | 73.9 nM | > 10000 nM | > 10000 nM
CNC(=O)c1ccc(Nc2ncc3c(n2)N(C)c2sc(C)nc2C(=O)N3C)c(OC)c1 [Compound 21, 3-methoxy-N-methyl-4-((2,4,9-trimethyl-10-oxo-9,10-dihydro-4H-pyrimido[5,4-b]thiazolo[5,4-e][1,4]diazepin-6-yl)amino)benzamide] | 45.4 nM | > 10000 nM | > 10000 nM
COc1cc2c(cc1Nc1ncc3c(n1)N(C)c1sc(C)nc1C(=O)N3C)CN(C)CC2 [Compound 22, 6-((6-methoxy-2-methyl-1,2,3,4-tetrahydroisoquinolin-7-yl)amino)-2,4,9-trimethyl-4,9-dihydro-10H-pyrimido[5,4-b]thiazolo[5,4-e][1,4]diazepin-10-one] | 37.8 nM | > 10000 nM | > 10000 nM
Cc1nc2c(s1)N(C)c1nc(Nc3ccc4c(c3)CCC(=O)N4)ncc1N(C)C2=O [Compound 23, 2,4,9-trimethyl-6-((2-oxo-1,2,3,4-tetrahydroquinolin-6-yl)amino)-4,9-dihydro-10H-pyrimido[5,4-b]thiazolo[5,4-e][1,4]diazepin-10-one] | 670 nM | > 10000 nM | > 10000 nM
COc1cc(C(=O)N2CCC(N3CCN(C)CC3)CC2)ccc1Nc1ncc2c(n1)N(C)c1sc(C)nc1C(=O)N2C [Compound 28, 6-((2-methoxy-4-(4-(4-methylpiperazin-1-yl)piperidine-1-carbonyl)phenyl)amino)-2,4,9-trimethyl-4,9-dihydro-10H-pyrimido[5,4-b]thiazolo[5,4-e][1,4]diazepin-10-one] | 77.7 nM | > 10000 nM | > 10000 nM
CCN1C(=O)c2nc(C)sc2N(C)c2nc(Nc3ccc(N4CCC(N5CCN(C)CC5)CC4)cc3OC)ncc21 [Compound 132, 9-ethyl-6-((2-methoxy-4-(4-(4-methylpiperazin-1-yl)piperidin-1-yl)phenyl)amino)-2,4-dimethyl-4,9-dihydro-10H-pyrimido[5,4-b]thiazolo[5,4-e][1,4]diazepin-10-one] | 18.8 nM | > 10000 nM | 930 nM
CCN1c2nc(Nc3ccc(N4CCC(N5CCN(C)CC5)CC4)cc3OC)ncc2N(C)C(=O)c2nc(C)sc21 [Compound 159, 4-ethyl-6-((2-methoxy-4-(4-(4-methylpiperazin-1-yl)piperidin-1-yl)phenyl)amino)-2,9-dimethyl-4,9-dihydro-10H-pyrimido[5,4-b]thiazolo[5,4-e][1,4]diazepin-10-one] | 22.9 nM | > 10000 nM | > 10000 nM
CNC(=O)c1ccc(Nc2ncc3c(n2)N(C)c2sc(C)nc2C(=O)N3C)cc1 [Compound 197, N-methyl-4-((2,4,9-trimethyl-10-oxo-9,10-dihydro-4H-pyrimido[5,4-b]thiazolo[5,4-e][1,4]diazepin-6-yl)amino)benzamide] | 173 nM | > 10000 nM | 5900 nM
COc1cc(N2CCN(S(C)(=O)=O)CC2)ccc1Nc1ncc2c(n1)N(C)c1sc(C)nc1C(=O)N2C [Compound 198, 6-((2-methoxy-4-(4-(methylsulfonyl)piperazin-1-yl)phenyl)amino)-2,4,9-trimethyl-4,9-dihydro-10H-pyrimido[5,4-b]thiazolo[5,4-e][1,4]diazepin-10-one] | 46.9 nM | > 10000 nM | > 10000 nM
COc1cc(N2CCC(N3CCN(C)CC3)CC2)ccc1Nc1ncc2c(n1)N(C)c1sc(C(C)C)nc1C(=O)N2C [Compound 203, 2-isopropyl-6-((2-methoxy-4-(4-(4-methylpiperazin-1-yl)piperidin-1-yl)phenyl)amino)-4,9-dimethyl-4,9-dihydro-10H-pyrimido[5,4-b]thiazolo[5,4-e][1,4]diazepin-10-one] | 58.8 nM | – | –
COc1cc(N2CCC(N3CCN(C)CC3)CC2)ccc1Nc1ncc2c(n1)N(CC(F)(F)F)c1sc(C)nc1C(=O)N2C [Compound 204, 6-((2-methoxy-4-(4-(4-methylpiperazin-1-yl)piperidin-1-yl)phenyl)amino)-2,9-dimethyl-4-(2,2,2-trifluoroethyl)-4,9-dihydro-10H-pyrimido[5,4-b]thiazolo[5,4-e][1,4]diazepin-10-one] | 68.3 nM | – | –
CCCN1c2nc(Nc3ccc(N4CCC(N5CCN(C)CC5)CC4)cc3OC)ncc2N(C)C(=O)c2nc(C)sc21 [Compound 205, 6-((2-methoxy-4-(4-(4-methylpiperazin-1-yl)piperidin-1-yl)phenyl)amino)-2,9-dimethyl-4-propyl-4,9-dihydro-10H-pyrimido[5,4-b]thiazolo[5,4-e][1,4]diazepin-10-one] | 46.6 nM | – | –

— US12365696B2, “Small-molecule focal adhesion kinase (FAK) inhibitors” (DANA-FARBER CANCER INSTITUTE, INC., priority 2019, dated 2025)
